Values quoted from earlier work in article PMC7731283, “Synthesis and Biological Evaluation of Halogenated E-Stilbenols as Promising Antiaging Agents” (Molecules, 2020).

Design: method as in PMID 29315886, PMID 15779070
Conditions: compared with RSV; cited from earlier work

Which metabolic stability does the source give for COc1cc(/C=C/c2ccc(O)cc2)cc(OC)c1 [pterostilbene] here?
The metabolic stability was “more metabolically stable”.
